In US20250381242A1 (INVAIO SCIENCES, INC., priority 2024, published 2025):
No end group written: not given here.

Tests used:
X. citri = experiment: Bacterial growth inhibition by OD600 absorbance, X. citri; assay type: cell-based, X. citri subsp. citri (ATCC 49118); settings: peptide 10 μM, 24 hours at 30° C., OD 600 nm
E. amylovora = settings: 24 h, 10 μM
A. tumefaciens = settings: 24 h, 10 μM
L. crescens = settings: 10 μM
E. coli = experiment: Bacterial growth inhibition by OD600 absorbance, E. coli; assay type: cell-based, E. coli (DH5-alpha); settings: peptide 10 μM, 24 hours at 37° C., OD 600 nm
In short: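 Percent inhibition was calculated from initial and 24 h OD600 readings against DMSO (0.1%) and antibiotic controls. Cultures received 10 μM peptide and were incubated at 30° C. (X. citri) or 37° C. (E. coli).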

Row | Sequence | growth inhibition, X. citri (X. citri) [%] | growth inhibition, E. amylovora (E. amylovora) [%] | growth inhibition, A. tumefaciens (A. tumefaciens) [%] | growth inhibition, L. crescens (L. crescens) [%] | growth inhibition, E. coli (E. coli) [%]
1 | KFLKKAKKFGKAFVKIL [compound 83] | <90 | 100.00 | 99.31 | <90 | <90
2 | KFWSLLKKALRLWANVL [compound 76] | 100.00 | 100.00 | 100.00 | 99.76 | 100.00
3 | KILKRLAAKIKKIL [compound 113] | 100.00 | <90 | <90 | <90 | <90
4 | KKFLHSAKKWLKAFVKLFKNW [compound 33] | 100.00 | <90 | 100.00 | 96.12 | 100.00
5 | KKIGKKAAKKVIVKAIQAIV [compound 73] | <90 | 99.94 | <90 | <90 | <90
6 | KKLIKVFAKGFKKAKKLFKGIG [compound 52] | 100.00 | 100.00 | 100.00 | <90 | <90
7 | KLLKKAGKLLKKAGKLLKKAG [compound 71] | 100.00 | 100.00 | 100.00 | <90 | <90
8 | KNWKGIAGMAKKLLGKNWKLM [compound 59] | 100.00 | 100.00 | 99.61 | <90 | <90
9 | KWAVRIIRKFIKGFIS [compound 88] | <90 | 100.00 | 100.00 | <90 | 96.20
10 | KWKSFIKKLTKKFLHSAKKF [compound 49] | 100.00 | 100.00 | 100.00 | <90 | <90
11 | KWKSFIKNLEKVLKKGPILANLVSIV [compound 23] | 100.00 | 100.00 | 100.00 | 99.03 | 100.00
12 | KWLKKWLKKWLK [compound 103] | <90 | 100.00 | 100.00 | <90 | 98.34
13 | KWVKKWVKKWVK [compound 110] | 100.00 | 98.51 | <90 | <90 | <90
14 | KWYKKWYKKWYKKWYK [compound 54] | 100.00 | 100.00 | 99.49 | <90 | 100.00
15 | LHRLVKLVAALLRGYASKVDTH [compound 53] | 100.00 | 100.00 | 100.00 | <90 | 100.00
16 | LNWGALLKHLLK [compound 139] | <90 | 100.00 | 100.00 | <90 | <90
17 | LRFLKKALKKLF [compound 129] | <90 | 93.29 | 98.87 | <90 | <90
18 | LRFLKKILKHLF [compound 120] | 100.00 | 100.00 | 100.00 | <90 | 100.00
19 | LVQRGRFGRFLKKVRRFIPKVIIAAQIGSRFG [compound 6] | 100.00 | 98.64 | 100.00 | <90 | 99.36
20 | QKRPRVRLSAWKKIWKPGIKKWIK [compound 21] | 100.00 | 100.00 | 96.97 | <90 | <90
21 | RFRRLFRIRVRVLKKI [compound 72] | 100.00 | 100.00 | 100.00 | <90 | <90
22 | RKYVRFLHRWVKYFRAYL [compound 47] | <90 | <90 | <90 | <90 | 99.75
23 | RWKIFKKPFKISIHL [compound 90] | <90 | 100.00 | 100.00 | <90 | 98.69
